Laboratory results published in patent publication US20050267067A1, “Radical reaction inhibitors, method for inhibition of radical reactions, and use thereof” (priority 2002, published 2005).

Columns and labels:
[1] = test system: low density lipoprotein (LDL); assay: Oxidation of low density lipoprotein (LDL) by AAPH, absorbance at 234 nm; format: biochemical; conditions: for Absorbance at a wavelength of 234 nm Average: 120 min after initiating the reaction
Protocol: An experiment for examining the influence of cyclotetrasaccharide on the oxidation inhibition for low density lipoprotein (LDL) was conducted as follows: Two and half milliliters of 0.5 mg/ml of a low density lipoprotein (LDL) in phosphate buffered saline (PBS, pH 7.4) was mixed with 2.5 ml of 100 mM PBS solution containing any one of the crystalline cyclotetrasaccharide pentahydrate, crystalline cyclotetrasaccharide monohydrate, and anhydrous crystalline cyclotetrasaccharide, which had been prepared in Experiment 1-1, in PBS or 2.5 ml of PBS free of cyclotetrasaccharide. The resulting mixture was admixed with 50 μl of 100 mM 2,2′-azo-bis(2-amidinopropane)dihydrochloride (AAPH) in PBS (pH 7.4) and reacted at 37° C. The reaction was continued for 240 min to examine changes on time course. […] In Table 2, the results for crystalline cyclotetrasaccharide pentahydrate are only shown because crystalline cyclotetrasaccharide pentahydrate, crystalline cyclotetrasaccharide monohydrate, and anhydrous crystalline cyclotetrasaccharide gave similar results. Also, the influence of cyclotetrasaccharide on the oxidation of a low density lipoprotein (LDL) by AAPH was examined by mixing a 2.5 ml solution containing 0.5 mg/ml of a low density lipoprotein (LDL) in PBS with 2.5 ml of a PBS solution in which the crystalline cyclotetrasaccharide pentahydrate, prepared in Experiment 1-1, had been dissolved to give a concentration of 2 mM, 10 mM or 20 mM, or 2.5 ml of PBS with no cyclotetrasaccharide; and measuring for absorbance at a wavelength of 234 nm for each of the resulting mixtures similarly as above.

[2] = Preservation of vitamin D3 tablets at 60° C., absorbance at 265 nm; format: physicochemical; conditions: after preserving for 14 days
maltase = assay: Maltase activity of rat small intestinal mucosal enzyme solution after AAPH oxidation; format: biochemical
Protocol: One milliliter of the above rat small intestinal mucosal enzyme solution, one milliliter of a 100 mM AAPH solution, one milliliter of a 50 mM phosphate buffer (pH 7.2), and one milliliter of a 400 mM of the crystalline cyclotetrasaccharide pentahydrate prepared in Experiment 1-1 were mixed, incubated at 37° C. for two hours, and measured for the activities of sucrase and maltase. […] To a half milliliter of a maltose solution, which had been prepared by dissolving maltose in 50 mM sodium maleate (pH 6.6) to give a concentration of one percent (%), 0.05 ml of a AAPH-rat small intestinal mucosal enzyme solution. After incubated at 37° C. for 30 min, the mixture was quantified for free glucose by the GOD method. One unit (U) activity of maltase was defined as an enzyme amount that releases two micromoles of glucose per minutes from maltose at 37° C.

OCC1OC2OCC3O[C@H](O[C@H]4C(O)C(CO)OC(OCC5O[C@H](O[C@@H](C1O)C2O)C(O)C(O)[C@@H]5O)C4O)C(O)C(O)[C@@H]3O (stereo partly drawn) [Cyclotetrasaccharide, cyclo{→6}-α-D-glucopyranosyl-(1→3)-α-D-glucopyranosyl-(1→6)-α-D-glucopyranosyl-(1→3)-α-D-glucopyranosyl-(1→}]
Formation percentage (%) of LDL oxide ([1]; 1 mM cyclotetrasaccharide, 120 min): 76%
Absorbance at a wavelength of 234 nm Average ([1]; 1 mM cyclotetrasaccharide): 0.163
Formation percentage (%) of LDL oxide ([1]; 5 mM cyclotetrasaccharide, 120 min): 35%
Absorbance at a wavelength of 234 nm Average ([1]; 5 mM cyclotetrasaccharide): 0.076
Absorbance at a wavelength of 234 nm Average ([1]; 10 mM cyclotetrasaccharide): 0.028
Absorbance at a wavelength of 234 nm ([1]; 50 mM cyclotetrasaccharide, 0 min after adding AAPH): 0.0
Formation percentage (%) of LDL oxide ([1]; 50 mM cyclotetrasaccharide, 30 min, versus system with no cyclotetrasaccharide): 14%
Absorbance at a wavelength of 234 nm ([1]; 50 mM cyclotetrasaccharide, 30 min after adding AAPH): 0.018
Formation percentage (%) of LDL oxide ([1]; 50 mM cyclotetrasaccharide, 60 min, versus system with no cyclotetrasaccharide): 20%
Absorbance at a wavelength of 234 nm ([1]; 50 mM cyclotetrasaccharide, 60 min after adding AAPH): 0.042
Formation percentage (%) of LDL oxide ([1]; 50 mM cyclotetrasaccharide, 120 min, versus system with no cyclotetrasaccharide): 21%
Absorbance at a wavelength of 234 nm ([1]; 50 mM cyclotetrasaccharide, 120 min after adding AAPH): 0.046
Formation percentage (%) of LDL oxide ([1]; 50 mM cyclotetrasaccharide, 180 min, versus system with no cyclotetrasaccharide): 23%
Absorbance at a wavelength of 234 nm ([1]; 50 mM cyclotetrasaccharide, 180 min after adding AAPH): 0.056
Absorbance at a wavelength of 234 nm ([1]; 50 mM cyclotetrasaccharide, 240 min after adding AAPH): 0.064
residual vitamin D3 (%) [2]: 61%
Maltase activity (maltase; enzyme solution incubated with AAPH at 37° C. for two hours, with or without cyclotetrasaccharide): 0.0669 u/mg-protein
Maltase Relative residual activity (%) (maltase; versus system with no AAPH, 37° C., two hours): (85) %
